Experimental data as given in ChEMBL document CHEMBL4811240, “Discovery of N-substituted sulfamoylbenzamide derivatives as novel inhibitors of STAT3 signaling pathway based on Niclosamide” (Eur J Med Chem, 2021).

Legend:
L3.6pl = assay: Antiproliferative activity against human L3.6 cells assessed as inhibition of cell viability at 10 uM after 48 hrs by MTT assay relative to control; type: functional
SW480 [1] = assay: Antiproliferative activity against human SW480 cells assessed as inhibition of cell viability at 10 uM after 48 hrs by MTT assay relative to control; type: functional
MDA-MB-231 [2] = assay: Antiproliferative activity against human MDA-MB-231 cells assessed as inhibition of cell viability at 10 uM after 48 hrs by MTT assay relative to control; type: functional
HCT-116 [3] = assay: Antiproliferative activity against human HCT116 cells assessed as inhibition of cell viability at 10 uM after 48 hrs by MTT assay relative to control; type: functional
HCT-116 [4] = assay: Antiproliferative activity against human HCT-116 cells assessed as inhibition of cell viability after 48 hrs by MTT assay; type: functional, cell-based; settings: HCT-116, 48 h
MDA-MB-231 [5] = assay: Antiproliferative activity against human MDA-MB-231 cells assessed as inhibition of cell viability after 48 hrs by MTT assay; type: functional, cell-based; settings: MDA-MB-231, 48 h
SW480 [6] = assay: Antiproliferative activity against human SW480 cells assessed as inhibition of cell viability after 48 hrs by MTT assay; type: functional, cell-based; settings: SW480, 48 h
[7] = Lipophilicity, log P of the compound; type: physicochemical; settings: octanol/water

Structure (SMILES) | inhibition at 10 µM (L3.6pl) | inhibition at 10 µM (SW480 [1]) | inhibition at 10 µM (MDA-MB-231 [2]) | inhibition at 10 µM (HCT-116 [3]) | IC50 (HCT-116 [4]) | IC50 (MDA-MB-231 [5]) | IC50 (SW480 [6]) | logP [7]
NS(=O)(=O)c1cc(C(=O)Nc2ccc(N3CCOCC3)cc2)ccc1Cl | 12.2% | 21.9% | 43.3% | 39.3% |  |  |  | 
NS(=O)(=O)c1cccc(C(=O)Nc2ccccc2C(F)(F)F)c1 | 21.9% | 24.8% | 42.8% | 40.3% |  |  |  | 
COc1ccc(C(=O)NS(=O)(=O)c2cc(C(=O)Nc3cc(OC)c(OC)c(OC)c3)ccc2Cl)cc1 | 18.3% | 20.1% | 13.1% | 4.8% |  |  |  | 
NS(=O)(=O)c1cc(C(=O)Nc2ccc(C(F)(F)F)cc2)ccc1Cl | 29.6% | 47.4% | 27.3% | 55.4% | 10.8 µM | 7.32 µM | > 20 µM | 2.76
COc1ccccc1NC(=O)c1ccc(Cl)c(S(N)(=O)=O)c1 | 22.9% | 49.3% | 19.8% | 37.3% |  |  |  | 
C=CC(=O)NS(=O)(=O)c1cc(C(=O)Nc2cc(OC)c(OC)c(OC)c2)ccc1Cl | -12.9% | 28.9% | 2.82% | 24.2% |  |  |  | 
COc1cc(OC)cc(C(=O)NS(=O)(=O)c2cc(C(=O)Nc3cc(OC)c(OC)c(OC)c3)ccc2Cl)c1 | -13.1% | 16.1% | 4.11% | -2.37% |  |  |  | 
CCC(=O)NS(=O)(=O)c1cc(C(=O)Nc2cc(OC)c(OC)c(OC)c2)ccc1Cl | 1.47% | 21.3% | 19.6% | 27.2% |  |  |  | 
COc1cc(NC(=O)c2cccc(S(N)(=O)=O)c2)cc(OC)c1OC | 19.5% | 26.9% | 59.4% | 57.7% | 10.7 µM | 12.7 µM | > 20 µM | 0.79
COc1ccc(NC(=O)c2ccc(Cl)c(S(N)(=O)=O)c2)cc1 | 22.8% | 31.9% | 30.9% | 20.2% |  |  |  | 
NC(N)=NS(=O)(=O)c1ccc(NC(=O)c2ccc(Cl)c(S(N)(=O)=O)c2)cc1 | 11.1% | 27.3% | 46.4% | 41.3% |  |  |  | 
COc1cc(NC(=O)c2ccc(Cl)c(S(=O)(=O)NC(=O)c3cccc([N+](=O)[O-])c3)c2)cc(OC)c1OC | -6.13% | 12.1% | 14.3% | 3.74% |  |  |  | 
NS(=O)(=O)c1cccc(NC(=O)c2ccc(Cl)c(S(N)(=O)=O)c2)c1 | 12.1% | 34.3% | 52.8% | 52.2% | 17.2 µM | 11.9 µM | > 20 µM | 1.19
COc1cc(NC(=O)c2ccc(Cl)c(S(=O)(=O)NC(=O)c3ccccc3)c2)cc(OC)c1OC | -27.8% | 29.5% | 2.05% | 32.3% |  |  |  | 
COc1cc(NC(=O)c2ccc(Cl)c(S(=O)(=O)NC(=O)C=C(C)C)c2)cc(OC)c1OC | -7.12% | 22.6% | 22.3% | 20.1% |  |  |  | 
COc1ccccc1NC(=O)c1cccc(S(N)(=O)=O)c1 | 9.7% | 18.2% | 27.1% | 40.3% |  |  |  | 
COc1cccc(NC(=O)c2ccc(Cl)c(S(N)(=O)=O)c2)c1 | 22.3% | 29.3% | 42.4% | 43% |  |  |  | 
COc1cc(NC(=O)c2ccc(Cl)c(S(N)(=O)=O)c2)c(C(=O)O)cc1OC | 11.8% | 30.2% | 66.7% | 47.2% |  |  |  | 
NS(=O)(=O)c1cc(C(=O)Nc2c(F)c(F)c(F)c(F)c2F)ccc1Cl | 12.6% | 27.1% | 33.1% | 34% |  |  |  | 
NS(=O)(=O)c1cccc(C(=O)Nc2ccc(C(F)(F)F)cc2)c1 | 18.1% | 38.1% | 26.4% | 19.1% |  |  |  | 
COc1cc(NC(=O)c2ccc(Cl)c(S(=O)(=O)NC(=O)c3ccc(Cl)nc3)c2)cc(OC)c1OC | -15.7% | 8.11% | 5.01% | -9.17% |  |  |  | 
COc1ccccc1CNC(=O)c1ccc(Cl)c(S(N)(=O)=O)c1 | 17.3% | 42.8% | 35% | 50% | > 20 µM | > 20 µM | > 20 µM | 1.77
NS(=O)(=O)c1cccc(C(=O)Nc2cccnc2)c1 | 32.7% | 28.3% | 42.9% | 8.11% |  |  |  | 
